Experiments:
DnaK (H. pylori HSP70) = target: T1, DnaK (H. pylori HSP70) (Helicobacter pylori, UniProt P55994); assay: SPR (BIAcore […]), DnaK amine-coupled to CM5 chip; format: binding
T1 construct: full length cloned from genomic DNA of ATCC43504 in pCold I (vector His tag, cleavage not mentioned), E. coli BL21, Ni-NTA
T1 sequence (P55994 2-620): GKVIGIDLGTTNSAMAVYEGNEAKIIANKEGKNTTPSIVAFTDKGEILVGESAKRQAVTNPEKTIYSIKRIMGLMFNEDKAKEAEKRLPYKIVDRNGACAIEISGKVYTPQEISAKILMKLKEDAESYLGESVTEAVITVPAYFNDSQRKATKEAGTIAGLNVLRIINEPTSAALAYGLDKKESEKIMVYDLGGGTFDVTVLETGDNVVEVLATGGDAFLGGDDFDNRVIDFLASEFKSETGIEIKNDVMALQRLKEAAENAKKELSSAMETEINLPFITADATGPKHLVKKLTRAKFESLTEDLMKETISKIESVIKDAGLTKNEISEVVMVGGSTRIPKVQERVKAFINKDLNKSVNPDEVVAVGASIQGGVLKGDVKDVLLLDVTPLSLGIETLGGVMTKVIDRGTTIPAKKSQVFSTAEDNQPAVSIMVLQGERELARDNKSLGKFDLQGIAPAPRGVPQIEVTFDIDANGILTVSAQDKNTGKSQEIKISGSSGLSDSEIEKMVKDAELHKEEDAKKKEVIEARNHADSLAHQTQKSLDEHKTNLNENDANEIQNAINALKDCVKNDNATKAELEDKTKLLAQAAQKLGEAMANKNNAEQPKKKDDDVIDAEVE

HSP70 (human HSP70) [1] = target: T2, HSP70 (human HSP70) (Homo sapiens, UniProt P0DMV8); assay: SPR (BIAcore […]), HSP70 amine-coupled to CM5 chip; format: binding
T2 construct: gene HSPA1A; full-length cDNA (from R. Morimoto) in pCold I (vector His tag, cleavage not mentioned); forward primer encodes N-terminus MAKAAAV

HSP70 (human HSP70) [2] = target: T2, HSP70 (human HSP70); assay: citrate synthase thermal aggregation (light scattering, […] nm); format: biochemical; conditions: 50 mM HEPES pH 7.4, 50 C; 50 μM HSP70, 0.25 μM citrate synthase, 5 mM GGA

T2 sequence (P0DMV8 whole entry): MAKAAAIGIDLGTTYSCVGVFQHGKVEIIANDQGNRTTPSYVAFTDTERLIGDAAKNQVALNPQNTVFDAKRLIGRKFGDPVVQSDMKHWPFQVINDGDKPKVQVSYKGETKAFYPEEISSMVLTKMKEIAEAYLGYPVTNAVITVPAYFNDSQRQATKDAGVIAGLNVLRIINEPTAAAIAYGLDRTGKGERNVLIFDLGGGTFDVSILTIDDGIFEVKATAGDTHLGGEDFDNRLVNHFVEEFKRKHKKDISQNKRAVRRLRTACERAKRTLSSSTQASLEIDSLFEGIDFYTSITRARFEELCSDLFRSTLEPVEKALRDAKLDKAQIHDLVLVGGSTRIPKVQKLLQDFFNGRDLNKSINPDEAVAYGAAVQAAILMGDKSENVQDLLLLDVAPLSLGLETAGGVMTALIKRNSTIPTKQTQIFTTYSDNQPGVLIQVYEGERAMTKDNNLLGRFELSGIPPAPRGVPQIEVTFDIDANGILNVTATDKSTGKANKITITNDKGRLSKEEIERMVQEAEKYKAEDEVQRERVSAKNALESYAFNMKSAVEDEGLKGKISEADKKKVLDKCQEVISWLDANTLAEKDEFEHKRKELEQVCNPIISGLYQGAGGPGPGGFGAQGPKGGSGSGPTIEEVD

SMILES: CC(=O)CC/C=C(\C)CC/C=C(\C)CC/C=C(\C)CCC=C(C)C [GGA, 6,10,14,18-tetramethyl-5,9,13,17-nonadecatetraen-2-one]
- Kd (DnaK (H. pylori HSP70)): 75.5 nM
- Kd (HSP70 (human HSP70) [1]): 2000 nM
- % reduction of chaperone activity at 5 mM (HSP70 (human HSP70) [2]): 15%
